For assay [1], the target named is T1, IκBα ubiquitinating enzyme (SCF complex: ROC1, Cullin1, Skp1, His-TrCP1; with E1, UbcH5b) (Homo sapiens, UniProt P62877+P63208+Q13616+Q9Y297).
T1 construct: His (polyhistidine); made in house; host or cells: insect cells (baculovirus) for the SCF complex and His-E1; E. coli for His-UBCH5b
The assay can be described thus: Measurement of ubiquitinating enzyme activity (IκBα ubiquitination, time-resolved fluorescence with Eu(K)-labeled ubiquitin and XL665-labeled anti-GST antibody). The assay is classed as biochemical. The essentials: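 Human SCF complex with E1 and UbcH5b ubiquitinated GST-IκBα pre-phosphorylated by IKKβ (2 mM ATP, pH 7.4, 1 h, RT), with Eu(K)-ubiquitin, 30 min RT. Stopped with EDTA, XL665 anti-GST added for 2 h; 665/620 nm TR-FRET ratio. % inhibition versus no-compound control and no-SCF blank gave IC50.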

Assay [2] has as its system ICAM-1 expression in HT-29 cells. The assay is described as follows: Measurement of ICAM-1 expressing activity (TNFα-induced ICAM-1 expression, cell ELISA). The assay is classed as cell-based. As to conditions: Homo sapiens, Table 6, cell activity inhibition test by method (3), read-out: EVALUATION (IC50 class, inhibition of cell activity). Summed up:
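HT-29 cells pretreated with compound (0.5% DMSO final) for 30 min at 37°C, then stimulated with 30 ng/mL human TNFα for 4 h. Surface ICAM-1 measured by cell ELISA on methanol-fixed cells: anti-ICAM-1 plus POD secondary, TMBZ substrate, absorbance at 450 nm.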

[3] abbreviates: enzyme activity inhibition test, method (1), Table 5, read-out: EVALUATION

Structures are written as SMILES. Where two headings read alike, the source gives them in different places. Bounds are passed on as bounds.

T1 sequence (Q9Y297 whole entry): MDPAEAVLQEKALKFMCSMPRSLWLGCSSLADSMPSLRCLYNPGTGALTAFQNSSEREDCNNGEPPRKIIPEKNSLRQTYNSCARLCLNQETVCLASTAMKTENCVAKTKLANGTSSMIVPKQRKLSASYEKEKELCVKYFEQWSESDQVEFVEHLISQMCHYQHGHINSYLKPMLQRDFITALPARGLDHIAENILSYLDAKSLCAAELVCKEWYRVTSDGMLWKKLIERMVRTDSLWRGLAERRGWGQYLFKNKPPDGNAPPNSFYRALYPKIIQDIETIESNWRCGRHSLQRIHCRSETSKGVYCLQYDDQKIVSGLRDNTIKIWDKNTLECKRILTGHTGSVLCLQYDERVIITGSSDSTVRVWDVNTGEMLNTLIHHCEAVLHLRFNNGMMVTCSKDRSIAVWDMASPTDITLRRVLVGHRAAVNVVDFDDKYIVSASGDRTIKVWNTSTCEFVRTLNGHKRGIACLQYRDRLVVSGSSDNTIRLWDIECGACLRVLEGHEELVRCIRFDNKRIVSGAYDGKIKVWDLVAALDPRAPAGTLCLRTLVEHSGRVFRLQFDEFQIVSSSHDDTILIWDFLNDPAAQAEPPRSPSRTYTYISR
T1 sequence (Q13616 whole entry): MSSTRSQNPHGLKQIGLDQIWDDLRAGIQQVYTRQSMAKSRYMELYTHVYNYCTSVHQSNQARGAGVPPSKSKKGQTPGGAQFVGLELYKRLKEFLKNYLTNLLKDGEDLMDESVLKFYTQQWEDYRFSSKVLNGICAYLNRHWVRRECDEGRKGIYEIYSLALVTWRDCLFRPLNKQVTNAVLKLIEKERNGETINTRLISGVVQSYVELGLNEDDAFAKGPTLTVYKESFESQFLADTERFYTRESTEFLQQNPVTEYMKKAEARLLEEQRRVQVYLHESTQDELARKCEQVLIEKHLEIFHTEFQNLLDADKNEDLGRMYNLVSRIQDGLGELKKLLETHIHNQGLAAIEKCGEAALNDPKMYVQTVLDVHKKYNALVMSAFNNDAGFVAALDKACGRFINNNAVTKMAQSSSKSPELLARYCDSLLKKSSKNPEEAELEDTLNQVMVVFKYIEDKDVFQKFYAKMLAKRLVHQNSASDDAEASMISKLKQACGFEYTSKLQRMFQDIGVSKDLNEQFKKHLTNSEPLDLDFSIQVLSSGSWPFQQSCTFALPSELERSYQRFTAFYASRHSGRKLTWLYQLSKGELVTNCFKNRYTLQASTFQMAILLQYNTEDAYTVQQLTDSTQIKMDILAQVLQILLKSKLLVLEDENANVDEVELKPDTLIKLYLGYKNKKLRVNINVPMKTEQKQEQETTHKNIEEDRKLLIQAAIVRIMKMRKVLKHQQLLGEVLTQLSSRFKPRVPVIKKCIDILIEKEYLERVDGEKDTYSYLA
T1 sequence (P63208 whole entry): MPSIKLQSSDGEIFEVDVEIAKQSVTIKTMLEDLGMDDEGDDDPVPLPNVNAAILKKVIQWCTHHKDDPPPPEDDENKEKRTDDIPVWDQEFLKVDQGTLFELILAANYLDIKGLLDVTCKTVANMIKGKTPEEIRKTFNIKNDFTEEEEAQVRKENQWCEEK
T1 sequence (P62877 whole entry): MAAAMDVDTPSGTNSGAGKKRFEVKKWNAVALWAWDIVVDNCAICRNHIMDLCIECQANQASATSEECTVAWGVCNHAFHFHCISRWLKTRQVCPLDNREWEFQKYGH

For `CCCCC1=NN(c2ccc(C(=O)O)cc2)C(=O)/C1=C\c1ccc(-n2ccnc2)cc1` [Compound 302], the figures for the IC50 in assay [1] (setting [3]) and in assay [2] were less than 10 µM and 10 to 20 µM, respectively.
`CCCCC1=NN(c2ccc(C(=O)O)cc2)C(=O)/C1=C\c1ccc2c(c1)OCCO2` [Compound 303]: the IC50 in assay [1] (setting [3]) and in assay [2] was less than 10 µM in each case.
Take `CCCCC1=NN(c2ccc(C(=O)O)cc2)C(=O)/C1=C\c1ccc(-n2cccn2)cc1` [Compound 305]: the IC50 in assay [1] (setting [3]) is less than 10 µM; in assay [2], 10 to 20 µM.
The like results for `CCCCC1=NN(c2ccc(C(=O)O)cc2)C(=O)/C1=C\c1ccc(-n2cncn2)cc1` [Compound 306] were, in that order, 10 to 20 µM and 10 to 20 µM.
With `COC(=O)N1CCN(c2ccc(C=C3C(=O)N(c4ccc(C(=O)O)cc4)N=C3c3cccnc3)cc2)CC1` [Compound 307], the IC50 in assay [1] was 10 to 20 µM; in assay [2] it was less than 40 µM.
As for `O=C(O)c1ccc(N2N=C(c3cccnc3)/C(=C/c3ccc(CO)o3)C2=O)cc1` [Compound 308], the figures for the IC50 in assay [1] (setting [3]) and in assay [2] were less than 10 µM and less than 40 µM, respectively.
For `COc1cc(/C=C2\C(=O)N(c3ccc(C(=O)O)cc3)N=C2C2CC2)ccc1O` [Compound 312], the IC50 in assay [1] (setting [3]) is less than 10 µM; in assay [2], less than 40 µM.
In the case of `O=C(O)c1ccc(N2N=C(C3CC3)/C(=C/c3ccc4ccccc4c3)C2=O)cc1` [Compound 313], the figures for the IC50 in assay [1] (setting [3]) and in assay [2] were less than 10 µM and 10 to 20 µM, respectively.
For `COc1cc(/C=C2\C(=O)N(c3ccc(C(=O)O)cc3)N=C2C2CC2)ccc1OCc1ccccc1` [Compound 314], the IC50 was less than 10 µM in assay [1] (setting [3]) and 10 to 20 µM in assay [2].
`COC(=O)N1CCN(c2ccc(C=C3C(=O)N(c4ccc(C(=O)O)cc4)N=C3C3CC3)cc2)CC1` [Compound 315]: the IC50 in assay [1] and in assay [2] was less than 10 µM throughout.
Turning to `O=C(O)c1ccc(N2N=C(C3CC3)/C(=C/c3ccc(CO)o3)C2=O)cc1` [Compound 316], the IC50 in assay [1] (setting [3]) and in assay [2] was less than 10 µM each time.
Turning to `O=C(O)c1ccc(N2N=C(C3CC3)/C(=C/c3ccc(N4CCCC4)cc3)C2=O)cc1` [Compound 317], the IC50 in assay [1] (setting [3]) and in assay [2] was 10 to 20 µM throughout.
With `O=C(O)c1ccc(N2N=C(C3CC3)/C(=C/c3ccc4c(c3)OCCO4)C2=O)cc1` [Compound 319], the IC50 in assay [1] (setting [3]) and in assay [2] was less than 10 µM throughout.
As for `CN1CCN(c2ccc(/C=C3\C(=O)N(c4ccc(C(=O)O)cc4)N=C3C3CC3)cc2)CC1` [Compound 321], the IC50 in assay [1] (setting [3]) is less than 10 µM; in assay [2], less than 40 µM.
As for `O=C(O)c1ccc(N2N=C(C3CC3)/C(=C/c3ccc(-n4cccn4)cc3)C2=O)cc1` [Compound 322], the values for the IC50 in assay [1] (setting [3]) and in assay [2] were less than 10 µM and 10 to 20 µM, respectively.
Consider `O=C(O)c1ccc(N2N=C(C3CC3)/C(=C/c3ccc(-n4cncn4)cc3)C2=O)cc1` [Compound 323], for which the IC50 in assay [1] (setting [3]) was less than 10 µM; in assay [2], less than 40 µM.
`COc1ccc(C2=NN(c3ccc(C(=O)O)cc3)C(=O)C2=Cc2ccc(O)c(OC)c2)cc1` [Compound 324]: the IC50 in assay [1] and in assay [2] was less than 10 µM throughout.
In the case of `COc1ccc(C2=NN(c3ccc(C(=O)O)cc3)C(=O)/C2=C\c2ccc3ccccc3c2)cc1` [Compound 325], the IC50 in assay [1] (setting [3]) and in assay [2] was less than 10 µM each time.
As to `COc1cc(C=C2C(=O)N(c3ccc(C(=O)O)cc3)N=C2c2ccc(F)cc2)ccc1OCc1ccccc1` [Compound 326], the IC50 is less than 10 µM in assay [1] and less than 40 µM in assay [2].
On to `COCC1=NN(c2ccc(C(=O)O)cc2)C(=O)/C1=C\c1ccc(CO)o1` [Compound 328], for which the IC50 in assay [1] (setting [3]) and in assay [2] was less than 10 µM each time.
Take `O=C(O)c1ccc(N2N=C(c3ccoc3)/C(=C/c3cccc4nccnc34)C2=O)cc1` [Compound 329]: the IC50 in assay [1] (setting [3]) and in assay [2] was 10 to 20 µM in each case.
Take `COc1ccc(C2=NN(c3ccc(C(=O)O)cc3)C(=O)C2=Cc2ccc3ccccc3c2)cc1OC` [Compound 333]: the IC50 in assay [1] and in assay [2] was 10 to 20 µM each time.
As to `O=C(O)c1ccc(N2N=C(c3ccncc3)/C(=C/c3ccc(CO)o3)C2=O)cc1` [Compound 334], the IC50 in assay [1] (setting [3]) was less than 10 µM; in assay [2] it was less than 40 µM.
On to `CCCCC1=NN(c2ccc(C(=O)O)cc2)C(=O)/C1=C\c1ccc(N2CCN(C)CC2)cc1` [Compound 340], for which the IC50 in assay [1] (setting [3]) is less than 10 µM; in assay [2] it was 10 to 20 µM.
With `COc1cc(/C=C2\C(=O)N(c3ccc(C(=O)O)cc3)N=C2C)ccc1OCC(=O)OC(C)(C)C` [Compound 346], the IC50 in assay [1] (setting [3]) was less than 10 µM; in assay [2] it was 10 to 20 µM.
As for `COC(=O)c1ccc(COc2ccc(C=C3C(=O)N(c4ccc(C(=O)O)cc4)N=C3C)cc2OC)cc1` [Compound 347], the IC50 in assay [1] was less than 10 µM; in assay [2] it was 10 to 20 µM.
Regarding `CC1=NN(c2ccc(C(=O)O)cc2)C(=O)C1=Cc1ccc2[nH]ccc2c1` [Compound 349], the IC50 in assay [1] is less than 10 µM; in assay [2] it was less than 40 µM.
Consider `CC1=NN(c2ccc(C(=O)O)cc2)C(=O)/C1=C\c1ccc(N2CCCCC2)cc1` [Compound 350], for which the IC50 in assay [1] (setting [3]) was less than 10 µM; in assay [2], less than 40 µM.
Turning to `CC1=NN(c2ccc(C(=O)O)cc2)C(=O)/C1=C\c1ccc(F)cc1` [Compound 351], the IC50 in assay [1] (setting [3]) was 10 to 20 µM; in assay [2], less than 40 µM.
`CC1=NN(c2ccc(C(=O)O)cc2)C(=O)/C1=C\c1ccc2occc2c1` [Compound 370]: the IC50 in assay [1] (setting [3]) was less than 10 µM; in assay [2], 10 to 20 µM.
For `CC1=NN(c2cccc(C(=O)N3CCCC3CO)c2)C(=O)/C1=C\c1ccc2[nH]ccc2c1` (centres unmarked) [Compound 372], the IC50 in assay [1] (setting [3]) was less than 10 µM; in assay [2] it was 10 to 20 µM.
As to `CC1=NN(c2cccc(C(=O)N3CCC(O)CC3)c2)C(=O)/C1=C\c1ccc2[nH]ccc2c1` [Compound 373], the IC50 was less than 10 µM in assay [1] (setting [3]) and less than 40 µM in assay [2].
As to `CC1=NN(c2cccc(C(=O)N3CCN(c4ccc(O)cc4)CC3)c2)C(=O)/C1=C\c1ccc2[nH]ccc2c1` [Compound 375], the IC50 is less than 10 µM in assay [1] (setting [3]) and less than 40 µM in assay [2].
In the case of `CC1=NN(c2cccc(C(=O)N3CCCC(C(=O)O)C3)c2)C(=O)/C1=C\c1ccc2[nH]ccc2c1` (centres unmarked) [Compound 376], the IC50 is less than 10 µM in assay [1] (setting [3]) and less than 40 µM in assay [2].
The like results for `CC1=NN(c2ccc(C(=O)N3CCC(CO)CC3)cc2)C(=O)/C1=C\c1ccc2c(c1)OCCO2` [Compound 387] were, in that order, 10 to 20 µM and less than 40 µM.
With `COc1cc(/C=C2\C(=O)N(c3ccc(C(=O)O)cc3)N=C2C)ccc1OCC1CC1` [Compound 390], the IC50 in assay [1] (setting [3]) was less than 10 µM; in assay [2], 10 to 20 µM.
As for `COc1cc(/C=C2\C(=O)N(c3ccc(C(=O)O)cc3)N=C2C)ccc1OCc1c(C)noc1C` [Compound 391], the IC50 was less than 10 µM in assay [1] (setting [3]) and 10 to 20 µM in assay [2].
The matching figures for `CCOC(=O)c1ccc(COc2ccc(/C=C3\C(=O)N(c4ccc(C(=O)O)cc4)N=C3C)cc2OC)o1` [Compound 392]: less than 10 µM and 10 to 20 µM.
As for `COc1cc(/C=C2\C(=O)N(c3cccc(C(=O)O)c3)N=C2C)ccc1OCC1CCCCC1` [Compound 407], the IC50 was 10 to 20 µM in assay [1] (setting [3]) and less than 40 µM in assay [2].
The like results for `CC1=NN(c2ccc(C(=O)N3CCCC3CO)cc2)C(=O)/C1=C\c1ccc2c(c1)OCCO2` (centres unmarked) [Compound 410] were, in that order, less than 10 µM and 10 to 20 µM.

Values taken from EP1900728A1 (Genecare Research Institute Co., Ltd, priority 2005, dated 2006).
